Test: Solubility in water
Type: physicochemical
Conditions: solubility in 100 g of water at 23° C.
Experimental: The white solid obtained above was examined for solubility in 100 g of water at 23° C.

Row | Compound | Crosslinking agent Solubility [g]
1 | NNC(=O)CCCCC(=O)NN [ADH, adipic acid dihydrazide] | 12.5
2 | CN(N)C(=O)CCCCC(=O)N(C)N [formula (4)] | 150

Source: US9809697B2, “Crosslinking agent, crosslinked polymer, and compound” (THE NIPPON SYNTHETIC CHEMICAL INDUSTRY CO., LTD., priority 2013, dated 2017)
